ChEMBL document CHEMBL5029152, “Discovery of Highly Potent and Selective IRAK1 Degraders to Probe Scaffolding Functions of IRAK1 in ABC DLBCL” (J Med Chem, 2021)
pIC50: −log10 of the molar value. Activity calls are given as the source filed them. The calls are words filed in the database; no cut-off is given here.

How the values were obtained:
[1] = biological target: T1, von Hippel-Lindau disease tumor suppressor/Interleukin-1 receptor-associated kinase 1 (Homo sapiens, UniProt P51617+P40337); assay: Protac activity at IRAK1/VHL E3 ligase in HEK293T cells assessed as induction of IRAK1 degradation at 1 uM measured after 24 hrsin presence of proteasome inhibitior MG-132 by Western blot analysis; type: cell-based; conditions: time 24.0 hrs
Target sequence in this assay (P40337 whole entry, looked up): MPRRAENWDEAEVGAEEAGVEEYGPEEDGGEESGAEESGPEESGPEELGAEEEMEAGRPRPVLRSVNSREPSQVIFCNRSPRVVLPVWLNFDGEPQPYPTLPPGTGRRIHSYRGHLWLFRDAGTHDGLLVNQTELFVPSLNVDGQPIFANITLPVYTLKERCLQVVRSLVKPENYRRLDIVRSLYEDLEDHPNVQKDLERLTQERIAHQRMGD
Target sequence in this assay (P51617 whole entry, looked up): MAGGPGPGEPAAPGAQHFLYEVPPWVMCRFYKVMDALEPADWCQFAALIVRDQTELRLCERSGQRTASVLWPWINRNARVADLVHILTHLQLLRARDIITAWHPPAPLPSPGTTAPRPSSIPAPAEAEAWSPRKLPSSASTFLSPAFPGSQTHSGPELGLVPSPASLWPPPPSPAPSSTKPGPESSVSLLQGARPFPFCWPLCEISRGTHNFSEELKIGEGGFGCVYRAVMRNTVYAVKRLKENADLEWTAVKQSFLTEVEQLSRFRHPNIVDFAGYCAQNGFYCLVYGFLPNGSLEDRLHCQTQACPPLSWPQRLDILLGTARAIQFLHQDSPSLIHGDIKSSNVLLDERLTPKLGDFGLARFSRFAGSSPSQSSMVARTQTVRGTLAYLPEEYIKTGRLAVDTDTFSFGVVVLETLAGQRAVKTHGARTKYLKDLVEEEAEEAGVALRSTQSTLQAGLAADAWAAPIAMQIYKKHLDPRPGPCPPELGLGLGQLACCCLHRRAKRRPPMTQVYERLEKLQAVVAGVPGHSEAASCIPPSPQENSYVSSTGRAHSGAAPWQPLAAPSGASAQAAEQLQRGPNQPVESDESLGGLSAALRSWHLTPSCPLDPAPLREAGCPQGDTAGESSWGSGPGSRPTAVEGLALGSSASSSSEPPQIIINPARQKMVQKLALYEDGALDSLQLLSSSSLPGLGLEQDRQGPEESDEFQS

[2] = biological target: von Hippel-Lindau disease tumor suppressor (Homo sapiens, UniProt P40337); assay: Displacement of 5-FAM-labelled DEALA-HypYIPMDDDFQLRSF peptide from VHL (unknown origin) by fluorescence polarization assay
[3] = biological target: T2, Interleukin-1 receptor-associated kinase 1 (Homo sapiens, UniProt P51617); assay: Induction of IRAK1 degradation in human Toledo cells assessed as decrease in protein abundance at 1 uM measured after 6 hrs by quantitative mass spectrometry; type: cell-based
[4] = biological target: BMP-2-inducible protein kinase (Homo sapiens) (UniProt Q9NSY1); assay: Inhibition of wild-type human partial length BIKE (S34 to N329 residues) expressed in bacterial expression system at 1 uM by Kinomescan method
[5] = biological target: T3, Serine/threonine-protein kinase 17B (Homo sapiens) (UniProt O94768); assay: Inhibition of wild-type human full length DRAK2 (M1 to C372 residues) expressed in bacterial expression system at 1 uM by Kinomescan method
T3 sequence (whole entry): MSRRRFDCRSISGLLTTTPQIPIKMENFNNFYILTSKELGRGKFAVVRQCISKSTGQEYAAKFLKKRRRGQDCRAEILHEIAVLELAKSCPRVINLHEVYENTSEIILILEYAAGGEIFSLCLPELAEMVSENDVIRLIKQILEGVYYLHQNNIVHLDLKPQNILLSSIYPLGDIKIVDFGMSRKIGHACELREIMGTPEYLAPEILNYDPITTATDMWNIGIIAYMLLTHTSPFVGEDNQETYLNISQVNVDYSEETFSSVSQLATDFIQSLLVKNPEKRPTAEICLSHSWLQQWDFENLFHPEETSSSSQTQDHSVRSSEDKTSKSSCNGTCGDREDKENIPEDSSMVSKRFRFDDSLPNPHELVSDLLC

[6] = biological target: T4, Mitogen-activated protein kinase kinase kinase 19 (Homo sapiens) (UniProt Q56UN5); assay: Inhibition of wild-type human partial length YSK4 (T1019 to H1328 residues) expressed in mammalian expression system at 1 uM by Kinomescan method
T4 sequence (whole entry): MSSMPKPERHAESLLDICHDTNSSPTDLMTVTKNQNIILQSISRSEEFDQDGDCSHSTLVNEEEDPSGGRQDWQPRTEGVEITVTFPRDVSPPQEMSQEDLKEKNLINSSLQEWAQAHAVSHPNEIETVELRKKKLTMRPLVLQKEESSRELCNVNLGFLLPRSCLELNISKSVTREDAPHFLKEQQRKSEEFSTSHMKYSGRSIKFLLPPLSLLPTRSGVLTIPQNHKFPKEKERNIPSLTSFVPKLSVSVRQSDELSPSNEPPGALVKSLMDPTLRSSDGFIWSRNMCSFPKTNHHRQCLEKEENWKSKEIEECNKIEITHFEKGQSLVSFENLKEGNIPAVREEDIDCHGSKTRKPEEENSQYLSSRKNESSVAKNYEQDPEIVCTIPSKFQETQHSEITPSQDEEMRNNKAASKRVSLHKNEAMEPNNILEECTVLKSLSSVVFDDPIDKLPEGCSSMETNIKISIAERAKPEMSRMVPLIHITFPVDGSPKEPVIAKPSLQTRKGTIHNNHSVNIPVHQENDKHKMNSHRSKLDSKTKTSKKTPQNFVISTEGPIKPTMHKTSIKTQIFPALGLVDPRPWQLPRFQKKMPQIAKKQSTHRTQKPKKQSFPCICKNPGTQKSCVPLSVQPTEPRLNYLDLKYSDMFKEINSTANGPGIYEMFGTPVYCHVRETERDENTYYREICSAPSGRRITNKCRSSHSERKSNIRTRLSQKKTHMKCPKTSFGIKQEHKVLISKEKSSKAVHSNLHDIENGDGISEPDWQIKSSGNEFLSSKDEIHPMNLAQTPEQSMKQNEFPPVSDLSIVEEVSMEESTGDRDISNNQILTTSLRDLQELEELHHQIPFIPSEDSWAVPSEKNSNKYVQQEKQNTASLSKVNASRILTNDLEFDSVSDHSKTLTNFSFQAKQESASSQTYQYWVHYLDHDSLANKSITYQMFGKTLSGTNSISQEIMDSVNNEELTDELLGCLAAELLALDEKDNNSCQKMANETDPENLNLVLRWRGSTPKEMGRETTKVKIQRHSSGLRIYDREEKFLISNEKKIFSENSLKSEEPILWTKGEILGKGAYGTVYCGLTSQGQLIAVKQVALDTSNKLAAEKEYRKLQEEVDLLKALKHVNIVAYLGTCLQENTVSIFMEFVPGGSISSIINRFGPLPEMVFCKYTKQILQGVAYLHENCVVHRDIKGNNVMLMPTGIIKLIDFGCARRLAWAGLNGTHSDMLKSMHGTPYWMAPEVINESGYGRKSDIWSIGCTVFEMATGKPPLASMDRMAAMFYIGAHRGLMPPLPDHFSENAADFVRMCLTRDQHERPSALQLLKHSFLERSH

[7] = biological target: T1, von Hippel-Lindau disease tumor suppressor/Interleukin-1 receptor-associated kinase 1; assay: Protac activity at IRAK1/VHL E3 ligase in human OCILY10 assessed as induction of IRAK1 degradation measured after 24 hrs by Western blot analysis
Target sequence in this assay (P51617 whole entry): as the sequence (P51617 whole entry, looked up) above
Target sequence in this assay (P40337 whole entry): as the sequence (P40337 whole entry, looked up) above

[8] = biological target: T1, von Hippel-Lindau disease tumor suppressor/Interleukin-1 receptor-associated kinase 1; assay: Protac activity at IRAK1/VHL E3 ligase in HEK293T cells assessed as induction of IRAK1 degradation at 10 uM measured after 24 hrs by Western blot analysis relative to control; type: cell-based
Target sequence in this assay (P40337 whole entry, looked up): as above
Target sequence in this assay (P51617 whole entry, looked up): as the sequence (P51617 whole entry, looked up) above

[9] = Cytotoxicity against human HBL1 cells assessed as reduction in cell viability measured after 12 days by CellTiter-Glo assay; type: functional; conditions: time 12 day
[10] = biological target: T2, Interleukin-1 receptor-associated kinase 1; assay: Inhibition of IRAK1 in human HBL1 cells assessed as reduction in total STAT3 level at up to 1 uM measured after 24 hrs by Western blot analysis; type: cell-based; conditions: dose microM <=1, time 24.0 hrs
OCI-Ly10 = assay: Cytotoxicity against human OCILY10 cells assessed as reduction in cell viability measured after 12 days by CellTiter-Glo assay; type: functional; conditions: time 12 day
[11] = biological target: T2, Interleukin-1 receptor-associated kinase 1; assay: Inhibition of IRAK1 in human HBL1 cells assessed as reduction in phosphorylated STAT3 level at up to 1 uM measured after 24 hrs by Western blot analysis; type: cell-based; conditions: dose microM <=1, time 24.0 hrs

T2 sequence (P51617 whole entry, looked up, the tested form may be a part): as the sequence (P51617 whole entry, looked up) above
Sequence of von Hippel-Lindau disease tumor suppressor (P40337 whole entry): as the sequence (P40337 whole entry, looked up) above
Sequence of BMP-2-inducible protein kinase (Homo sapiens) (Q9NSY1 whole entry, looked up, the tested form may be a part): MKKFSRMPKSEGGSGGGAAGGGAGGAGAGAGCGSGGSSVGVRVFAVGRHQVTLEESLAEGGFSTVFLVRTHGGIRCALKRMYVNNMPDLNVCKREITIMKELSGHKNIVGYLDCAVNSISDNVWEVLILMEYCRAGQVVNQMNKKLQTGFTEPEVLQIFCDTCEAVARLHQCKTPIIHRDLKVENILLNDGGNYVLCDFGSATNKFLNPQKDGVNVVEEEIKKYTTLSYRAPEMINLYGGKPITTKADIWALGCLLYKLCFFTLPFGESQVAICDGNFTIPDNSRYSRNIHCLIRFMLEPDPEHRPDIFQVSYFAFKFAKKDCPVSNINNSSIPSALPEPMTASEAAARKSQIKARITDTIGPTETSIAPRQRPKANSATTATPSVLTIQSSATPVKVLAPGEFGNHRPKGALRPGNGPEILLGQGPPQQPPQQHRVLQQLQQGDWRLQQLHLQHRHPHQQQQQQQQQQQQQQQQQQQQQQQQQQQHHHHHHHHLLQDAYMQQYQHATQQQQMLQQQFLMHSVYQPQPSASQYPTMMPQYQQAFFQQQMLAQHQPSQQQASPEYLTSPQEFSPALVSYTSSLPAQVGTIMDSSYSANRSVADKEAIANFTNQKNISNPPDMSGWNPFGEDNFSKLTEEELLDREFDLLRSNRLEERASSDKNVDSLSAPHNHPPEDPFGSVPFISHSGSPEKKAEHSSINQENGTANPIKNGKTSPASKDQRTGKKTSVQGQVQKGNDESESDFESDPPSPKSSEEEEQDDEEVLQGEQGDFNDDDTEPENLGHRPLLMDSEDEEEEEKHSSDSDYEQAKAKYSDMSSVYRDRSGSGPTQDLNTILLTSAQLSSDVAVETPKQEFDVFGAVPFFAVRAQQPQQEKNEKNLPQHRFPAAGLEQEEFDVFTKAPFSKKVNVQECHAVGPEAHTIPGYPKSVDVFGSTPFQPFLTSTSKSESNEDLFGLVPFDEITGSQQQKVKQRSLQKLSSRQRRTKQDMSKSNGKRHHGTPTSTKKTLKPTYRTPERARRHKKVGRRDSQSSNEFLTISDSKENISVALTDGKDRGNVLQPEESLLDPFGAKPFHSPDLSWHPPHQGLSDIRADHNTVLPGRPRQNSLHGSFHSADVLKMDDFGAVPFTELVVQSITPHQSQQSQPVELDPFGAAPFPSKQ

Activity [1]: inactive
pIC50 [2]: 5.97
Activity [3]: Active
inhibition [4]: Active
inhibition [5]: Active
inhibition [6]: Active
DC50 [7]: 20 nM
%max [8]: 96%
inhibition [10]: inactive
inhibition [11]: Active
Compound: COc1cc(N2CCC(OCC(=O)N[C@H](C(=O)N3C[C@H](O)C[C@H]3C(=O)N[C@@H](C)c3ccc(-c4scnc4C)cc3)C(C)(C)C)CC2)ccc1NC(=O)c1cccc(-c2ccn[nH]2)n1
Activity [9]: 60 nM
Activity (OCI-Ly10): 170 nM
